What was measured:
Assay type in all cases: cell-based
LNCaP cells = test: LNCaP cell viability assay (CellTiter-Glo); conditions: Homo sapiens; cell viability, LNCaP clone FGC, Prostate carcinoma (Table 4)
How it was run: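 LNCaP cells, 5000/well, exposed to compounds in 12-point 3-fold serial dilution (top 10 μM) for 3 days. Viability by CellTiter-Glo luminescence, normalized to untreated cells; IC50 by least-squares nonlinear regression.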

HEL = test: Cell viability assay, HEL; conditions: Homo sapiens, Erythroleukemia
Description: (§1) Cells were seeded at a density of 5000 cells per well in 96-well assay plates and treated with test compounds following a 12-point 3-fold serial dilution. Three days later, cell viability was determined using the CellTiter-Glo assay kit according to the manufacturer's instructions. The dose-response curves were determined and IC50 values were calculated using the GraphPad Prism software following a nonlinear regression (least squares fit) method.
(§2) The IC50 value of each compound was determined as described in FIG. 4 and calculated using the GraphPad Prism 5.0 software.

MV4; 11 = test: Cell viability assay, MV4; 11; conditions: Homo sapiens, 11, Acute monocytic leukemia
Description: as §1, §2

Kasumi-1 = test: Cell viability assay, Kasumi-1; conditions: Homo sapiens, Kasumi-1, Acute myeloid leukemia
Description: as §1, §2

NOMO-1 = test: Cell viability assay, NOMO-1; conditions: Homo sapiens, NOMO-1, Acute monocytic leukemia
Description: as §1, §2

MOLM-13 = test: Cell viability assay, MOLM-13; conditions: Homo sapiens, MOLM-13, Acute monocytic leukemia
Description: as §1, §2

HL-60 = test: Cell viability assay, HL-60; conditions: Homo sapiens, HL-60, Acute myeloid leukemia
Description: as §1, §2

MEG-01 = test: Cell viability assay, MEG-01; conditions: Homo sapiens, MEG-01, Chronic myeloid leukemia
Description: as §1, §2

MM.1S = test: Cell viability assay, MM.1S; conditions: Homo sapiens, MM1.S, Multiple Myeloma
Description: as §1, §2

MM.1R = test: Cell viability assay, MM.1R; conditions: Multiple Myeloma
Description: as §1, §2

NCI-H929 = test: Cell viability assay, NCI-H929; conditions: Homo sapiens, NCI-H929, Multiple Myeloma
Description: as §1, §2

L-363 = test: Cell viability assay, L-363; conditions: Homo sapiens, L-363, Multiple myeloma
Description: as §1, §2

RPMI-8226 = test: Cell viability assay, RPMI-8226; conditions: Homo sapiens, RPMI-8226, Multiple myeloma
Description: as §1, §2

AMO-1 = test: Cell viability assay, AMO-1; conditions: Homo sapiens, AMO1, AMO-1, Multiple Myeloma
Description: as §1, §2

WSU-DLCL2 = test: Cell viability assay, WSU-DLCL2; conditions: Homo sapiens, WSUDLCL2, WSU-DLCL2, Diffuse large B-cell lymphoma
Description: as §1, §2

Karpas-422 = test: Cell viability assay, Karpas-422; conditions: Homo sapiens, Karpas-422, Diffuse large B-cell lymphoma
Description: as §1, §2

Pfeiffer = test: Cell viability assay, Pfeiffer; conditions: Homo sapiens, Diffuse large B-cell lymphoma
Description: as §1, §2

SU-DHL-1 = test: Cell viability assay, SU-DHL-1; conditions: Homo sapiens, SU-DHL-1, Diffuse large B-cell lymphoma
Description: as §1, §2

VCaP = test: Cell viability assay, VCaP; conditions: Homo sapiens, Prostate carcinoma
Description: as §1, §2

22Rv1 = test: Cell viability assay, 22Rv1; conditions: Homo sapiens, 22Rv1, Prostate carcinoma
Description: as §1, §2

NCI-H520 = test: Cell viability assay, NCI-H520; conditions: Homo sapiens, NCI-H520, Non-small cell lung cancer
Description: as §1, §2

NCI-H1703 = test: Cell viability assay, NCI-H1703; conditions: Homo sapiens, NCI-H1703, Non-small cell lung cancer
Description: as §1, §2

LK-2 = test: Cell viability assay, LK-2; conditions: Homo sapiens, LK-2, Non-small cell lung cancer
Description: as §1, §2

MCF-7 = test: Cell viability assay, MCF-7; conditions: Homo sapiens, MCF7, MCF-7, breast carcinoma
Description: as §1, §2

SK-BR-3 = test: Cell viability assay, SK-BR-3; conditions: Homo sapiens, SK-BR-3, breast carcinoma
Description: as §1, §2

**Q.** Which IC50 (LNCaP cells) does the source give for `CNC(=O)N1CCc2c(c(N3CCCc4cc(-c5cnn(C)c5)c(C(F)F)cc43)nn2C2CCOCC2)C1` [GNE-781, reference compound] here?
**A.** 4170 nM

**Q.** What about the IC50 (HEL) of the same compound?
**A.** > 10000 nM

**Q.** What about the IC50 (MV4; 11) of the same compound?
**A.** > 10000 nM

**Q.** What about the IC50 (Kasumi-1) of the same compound?
**A.** 346 nM

**Q.** What about the IC50 (NOMO-1) of the same compound?
**A.** > 10000 nM

**Q.** And the IC50 (MOLM-13)?
**A.** > 10000 nM

**Q.** What about the IC50 (HL-60) of the same compound?
**A.** > 10000 nM

**Q.** And the IC50 (MEG-01)?
**A.** > 10000 nM

**Q.** And the IC50 (MM.1S)?
**A.** 12.8 nM

**Q.** And the IC50 (MM.1R)?
**A.** 13.2 nM

**Q.** What about the IC50 (NCI-H929) of the same compound?
**A.** 15.6 nM

**Q.** And the IC50 (L-363)?
**A.** > 1000 nM

**Q.** And the IC50 (RPMI-8226)?
**A.** 10.3 nM

**Q.** What about the IC50 (AMO-1) of the same compound?
**A.** 138 nM

**Q.** What about the IC50 (WSU-DLCL2) of the same compound?
**A.** 14 nM

**Q.** And the IC50 (Karpas-422)?
**A.** > 10000 nM

**Q.** What about the IC50 (Pfeiffer) of the same compound?
**A.** 132 nM

**Q.** And the IC50 (SU-DHL-1)?
**A.** > 1000 nM

**Q.** What about the IC50 (VCaP) of the same compound?
**A.** 723 nM

**Q.** And the IC50 (22Rv1)?
**A.** 1680 nM

**Q.** And the IC50 (NCI-H520)?
**A.** 5380 nM

**Q.** What about the IC50 (NCI-H1703) of the same compound?
**A.** > 10000 nM

**Q.** And the IC50 (LK-2)?
**A.** 2710 nM

**Q.** And the IC50 (MCF-7)?
**A.** 2390 nM

**Q.** What about the IC50 (SK-BR-3) of the same compound?
**A.** > 10000 nM
